Target: T1, FimH (Escherichia coli, UniProt Q1R2J4)
T1 construct: endogenous in cells; host or cells: E. coli UTI89 whole bacteria, agglutinating guinea pig red blood cells
Format: cell-based
Conditions: concentration reducing bacterial agglutination of guinea pig red blood cells by greater than 90%; UTI89 bacteria
Procedure: Hemagglutination Inhibition Assay (HAI)
The hemagglutination inhibition (HAI) assay was performed with UTI89 bacteria and guinea pig red blood cells, as previously described (S. J. Hultgren, W. R. Schwan, A. J. Schaeffer, J. L. Duncan Infect. Immun. 1986, 54, 613-620 and Jarvis, C.; Han, Z.; Kalas, V.; Klein, R.; Pinkner, J. S.; Ford, B.; Binkley, J.; Cusumano, C. K.; Cusumano, Z.; Mydock-McGrane, L.; Hultgren, S. J.; Janetka, J. W., ChemMedChem 2016, 11, 367-373).
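Further: concentration in nM.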

**Q.** For `Cc1cc(-c2cc(F)c(C3CC3)c(F)c2)ccc1[C@@H](O)[C@H]1O[C@H](CO)[C@@H](O)[C@H](O)[C@@H]1O` [Example 53], which “HAI titer EC > 90” value is on record?
**A.** “++++” (<50 “++++”)

**Q.** `Cc1cc(-c2cc(C3CC3)ccc2F)ccc1[C@@H](O)[C@H]1O[C@H](CO)[C@@H](O)[C@H](O)[C@@H]1O` [Example 54] was tested. Which “HAI titer EC > 90” value did it give?
**A.** “+++” (50-200 “+++”)

**Q.** Which “HAI titer EC > 90” value does the source give for `Cc1cc(-c2cc(Cl)ccc2OC(F)(F)F)ccc1[C@@H](O)[C@H]1O[C@H](CO)[C@@H](O)[C@H](O)[C@@H]1O` [Example 55] here?
**A.** “+++” (50-200 “+++”)

**Q.** Which “HAI titer EC > 90” value does the source give for `Cc1cc(-c2cc(Cl)c(C3CC3)cc2F)ccc1[C@@H](O)[C@H]1O[C@H](CO)[C@@H](O)[C@H](O)[C@@H]1O` [Example 56] here?
**A.** “+++” (50-200 “+++”)

**Q.** How did the “HAI titer EC > 90” value turn out when `Cc1ccc(-c2ccc([C@@H](O)[C@H]3O[C@H](CO)[C@@H](O)[C@H](O)[C@@H]3O)c(C)c2)cc1F` [Example 57] was run?
**A.** “+++” (50-200 “+++”)

**Q.** With `COc1cc(F)cc(-c2ccc([C@@H](O)[C@H]3O[C@H](CO)[C@@H](O)[C@H](O)[C@@H]3O)c(C(F)(F)F)c2)c1` [Example 58] as the molecule, how does the “HAI titer EC > 90” value read?
**A.** “++++” (<50 “++++”)

**Q.** How did the “HAI titer EC > 90” value turn out when `OC[C@H]1O[C@H]([C@H](O)c2ccc(-c3cc(F)cc(C(F)(F)F)c3)cc2C(F)(F)F)[C@@H](O)[C@@H](O)[C@@H]1O` [Example 59] was run?
**A.** “++++” (<50 “++++”)

**Q.** For `Cc1cc(F)cc(-c2ccc([C@@H](O)[C@H]3O[C@H](CO)[C@@H](O)[C@H](O)[C@@H]3O)c(C)c2)c1` [Example 60], which “HAI titer EC > 90” value is on record?
**A.** “+++” (50-200 “+++”)

**Q.** With `Cc1cc(-c2cc(F)cc(C3CC3)c2)ccc1[C@@H](O)[C@H]1O[C@H](CO)[C@@H](O)[C@H](O)[C@@H]1O` [Example 62] as the molecule, how does the “HAI titer EC > 90” value read?
**A.** “+++” (50-200 “+++”)

**Q.** Which “HAI titer EC > 90” value does the source give for `COc1cc(-c2ccc([C@@H](O)[C@H]3O[C@H](CO)[C@@H](O)[C@H](O)[C@@H]3O)c(C)c2)cc(F)c1C` [Example 63] here?
**A.** “++++” (<50 “++++”)

**Q.** Which “HAI titer EC > 90” value does the source give for `COc1cc(C)cc(-c2ccc([C@@H](O)[C@H]3O[C@H](CO)[C@@H](O)[C@H](O)[C@@H]3O)c(C)c2)c1` [Example 65] here?
**A.** “+++” (50-200 “+++”)

**Q.** `Cc1cc(-c2ccc(C(F)(F)F)c(C)c2)ccc1[C@@H](O)[C@H]1O[C@H](CO)[C@@H](O)[C@H](O)[C@@H]1O` [Example 66] was tested. Which “HAI titer EC > 90” value did it give?
**A.** “++++” (<50 “++++”)

**Q.** Which “HAI titer EC > 90” value does the source give for `Cc1cc(-c2ccc(C(F)(F)F)c(C(F)(F)F)c2)ccc1[C@@H](O)[C@H]1O[C@H](CO)[C@@H](O)[C@H](O)[C@@H]1O` [Example 67] here?
**A.** “++++” (<50 “++++”)

**Q.** For `Cc1cc(-c2ccc([C@@H](O)[C@H]3O[C@H](CO)[C@@H](O)[C@H](O)[C@@H]3O)c(C)c2)cc(C(F)(F)F)c1` [Example 68], which “HAI titer EC > 90” value is on record?
**A.** “++++” (<50 “++++”)

**Q.** `COc1ccc(-c2ccc([C@@H](O)[C@H]3O[C@H](CO)[C@@H](O)[C@H](O)[C@@H]3O)c(C)c2)cc1C(F)(F)F` [Example 69] was tested. Which “HAI titer EC > 90” value did it give?
**A.** “++++” (<50 “++++”)

**Q.** With `Cc1cc(-c2cc(F)cc(F)c2F)ccc1[C@@H](O)[C@H]1O[C@H](CO)[C@@H](O)[C@H](O)[C@@H]1O` [Example 70] as the molecule, how does the “HAI titer EC > 90” value read?
**A.** “++++” (<50 “++++”)

**Q.** `COc1c(F)cc(-c2ccc([C@@H](O)[C@H]3O[C@H](CO)[C@@H](O)[C@H](O)[C@@H]3O)c(C)c2)cc1Cl` [Example 71] was tested. Which “HAI titer EC > 90” value did it give?
**A.** “++++” (<50 “++++”)

**Q.** For `Cc1cc(-c2cccc(C(F)(F)F)c2)ccc1[C@@H](O)[C@H]1O[C@H](CO)[C@@H](O)[C@H](O)[C@@H]1O` [Example 75], which “HAI titer EC > 90” value is on record?
**A.** “+++” (50-200 “+++”)

**Q.** For `COc1cc(-c2ccc([C@@H](O)[C@H]3O[C@H](CO)[C@@H](O)[C@H](O)[C@@H]3O)c(C)c2)ccc1C(F)(F)F` [Example 76], which “HAI titer EC > 90” value is on record?
**A.** “++++” (<50 “++++”)

**Q.** With `Cc1cc(-c2cccc(F)c2)ccc1[C@@H](O)[C@H]1O[C@H](CO)[C@@H](O)[C@H](O)[C@@H]1O` [Example 77] as the molecule, how does the “HAI titer EC > 90” value read?
**A.** “+++” (50-200 “+++”)

**Q.** `CCOc1ccc(-c2ccc([C@@H](O)[C@H]3O[C@H](CO)[C@@H](O)[C@H](O)[C@@H]3O)c(C)c2)cc1F` [Example 81] was tested. Which “HAI titer EC > 90” value did it give?
**A.** “++++” (<50 “++++”)

**Q.** For `COc1cc(F)c(-c2ccc([C@@H](O)[C@H]3O[C@H](CO)[C@@H](O)[C@H](O)[C@@H]3O)c(C)c2)cc1F` [Example 82], which “HAI titer EC > 90” value is on record?
**A.** “++++” (<50 “++++”)

**Q.** Which “HAI titer EC > 90” value does the source give for `Cc1cc(-c2ccc(CN(C)C)c(F)c2)ccc1[C@@H](O)[C@H]1O[C@H](CO)[C@@H](O)[C@H](O)[C@@H]1O` [Example 83] here?
**A.** “++++” (<50 “++++”)

**Q.** `Cc1cc(-c2cc(C)c(C)c(F)c2)ccc1[C@@H](O)[C@H]1O[C@H](CO)[C@@H](O)[C@H](O)[C@@H]1O` [Example 84] was tested. Which “HAI titer EC > 90” value did it give?
**A.** “++++” (<50 “++++”)

**Q.** For `Cc1cc(-c2cc(F)cc(C(F)F)c2)ccc1[C@@H](O)[C@H]1O[C@H](CO)[C@@H](O)[C@H](O)[C@@H]1O` [Example 85], which “HAI titer EC > 90” value is on record?
**A.** “++++” (<50 “++++”)

**Q.** For `Cc1cc(-c2cc(C(F)F)cc(C(F)F)c2)ccc1[C@@H](O)[C@H]1O[C@H](CO)[C@@H](O)[C@H](O)[C@@H]1O` [Example 86], which “HAI titer EC > 90” value is on record?
**A.** “++++” (<50 “++++”)

**Q.** How did the “HAI titer EC > 90” value turn out when `COc1cc(-c2ccc([C@@H](O)[C@H]3O[C@H](CO)[C@@H](O)[C@H](O)[C@@H]3O)c(C)c2)cc(F)c1C(F)(F)F` [Example 87] was run?
**A.** “++++” (<50 “++++”)

**Q.** How did the “HAI titer EC > 90” value turn out when `Cc1cc(-c2cc(C)c(F)c(F)c2)ccc1[C@@H](O)[C@H]1O[C@H](CO)[C@@H](O)[C@H](O)[C@@H]1O` [Example 88] was run?
**A.** “++++” (<50 “++++”)

**Q.** `Cc1cc(-c2cc(F)c(C(C)C)c(F)c2)ccc1[C@@H](O)[C@H]1O[C@H](CO)[C@@H](O)[C@H](O)[C@@H]1O` [Example 89] was tested. Which “HAI titer EC > 90” value did it give?
**A.** “++++” (<50 “++++”)

**Q.** `Cc1cc(-c2cc(OC(C)C)cc(C(F)(F)F)c2)ccc1[C@@H](O)[C@H]1O[C@H](CO)[C@@H](O)[C@H](O)[C@@H]1O` [Example 90] was tested. Which “HAI titer EC > 90” value did it give?
**A.** “+++” (50-200 “+++”)

**Q.** Which “HAI titer EC > 90” value does the source give for `CCCc1c(F)cc(-c2ccc([C@@H](O)[C@H]3O[C@H](CO)[C@@H](O)[C@H](O)[C@@H]3O)c(C)c2)cc1F` [Example 92] here?
**A.** “++++” (<50 “++++”)

**Q.** Which “HAI titer EC > 90” value does the source give for `Cc1cc(-c2cc(F)c(OC(F)F)c(F)c2)ccc1[C@@H](O)[C@H]1O[C@H](CO)[C@@H](O)[C@H](O)[C@@H]1O` [Example 96] here?
**A.** “++++” (<50 “++++”)

**Q.** `OC[C@H]1O[C@H]([C@H](O)c2ccc(-c3cc(F)c(F)c(F)c3)cc2C(F)(F)F)[C@@H](O)[C@@H](O)[C@@H]1O` [Example 97] was tested. Which “HAI titer EC > 90” value did it give?
**A.** “++++” (<50 “++++”)

**Q.** For `Cc1cc(-c2ccc(F)cc2)ccc1[C@@H](O)[C@H]1O[C@H](CO)[C@@H](O)[C@H](O)[C@@H]1O` [Example 98], which “HAI titer EC > 90” value is on record?
**A.** “+++” (50-200 “+++”)

**Q.** With `Cc1cc(-c2ccc(Cl)cc2)ccc1[C@@H](O)[C@H]1O[C@H](CO)[C@@H](O)[C@H](O)[C@@H]1O` [Example 99] as the molecule, how does the “HAI titer EC > 90” value read?
**A.** “+++” (50-200 “+++”)

**Q.** With `Cc1cc(-c2ccc(C3CC3)cc2)ccc1[C@@H](O)[C@H]1O[C@H](CO)[C@@H](O)[C@H](O)[C@@H]1O` [Example 100] as the molecule, how does the “HAI titer EC > 90” value read?
**A.** “+++” (50-200 “+++”)

**Q.** For `COCc1c(F)cc(-c2ccc([C@@H](O)[C@H]3O[C@H](CO)[C@@H](O)[C@H](O)[C@@H]3O)c(C)c2)cc1F` [Example 102], which “HAI titer EC > 90” value is on record?
**A.** “++++” (<50 “++++”)

**Q.** Which “HAI titer EC > 90” value does the source give for `C#Cc1c(F)cc(-c2ccc([C@@H](O)[C@H]3O[C@H](CO)[C@@H](O)[C@H](O)[C@@H]3O)c(C)c2)cc1F` [Example 103] here?
**A.** “++++” (<50 “++++”)

**Q.** `Cc1cc(-c2cc(F)c(N(C)C)c(F)c2)ccc1[C@@H](O)[C@H]1O[C@H](CO)[C@@H](O)[C@H](O)[C@@H]1O` [Example 104] was tested. Which “HAI titer EC > 90” value did it give?
**A.** “++++” (<50 “++++”)

**Q.** How did the “HAI titer EC > 90” value turn out when `Cc1cc(-c2ccc(C(F)(F)F)cc2)ccc1[C@@H](O)[C@H]1O[C@H](CO)[C@@H](O)[C@H](O)[C@@H]1O` [Example 105] was run?
**A.** “+++” (50-200 “+++”)

**Q.** `COc1cc(-c2ccc([C@@H](O)[C@H]3O[C@H](CO)[C@@H](O)[C@H](O)[C@@H]3O)c(C)c2)cc(C(F)(F)F)c1F` [Example 106] was tested. Which “HAI titer EC > 90” value did it give?
**A.** “++++” (<50 “++++”)

**Q.** With `Cc1cc(-c2cc(F)cc(N(C)C)c2)ccc1[C@@H](O)[C@H]1O[C@H](CO)[C@@H](O)[C@H](O)[C@@H]1O` [Example 109] as the molecule, how does the “HAI titer EC > 90” value read?
**A.** “++++” (<50 “++++”)

**Q.** For `Cc1cc(-c2cc(F)c(F)c(C(F)(F)F)c2)ccc1[C@@H](O)[C@H]1O[C@H](CO)[C@@H](O)[C@H](O)[C@@H]1O` [Example 110], which “HAI titer EC > 90” value is on record?
**A.** “++++” (<50 “++++”)

— patent US12552824B2, “C-mannoside compounds useful for the treatment of urinary tract infections” (GLAXOSMITHKLINE INTELLECTUAL PROPERTY DEVELOPMENT LIMITED, priority 2018, dated 2026)
